Results on 59 compounds are retold here after patent US8822448B2, “Pyrazoloquinoline compound” (Astellas Pharma Inc., priority 2010, dated 2014).

Where a name gives a salt, the structure may show the parent alone.

Sequence of PDE9 (O76083 whole entry): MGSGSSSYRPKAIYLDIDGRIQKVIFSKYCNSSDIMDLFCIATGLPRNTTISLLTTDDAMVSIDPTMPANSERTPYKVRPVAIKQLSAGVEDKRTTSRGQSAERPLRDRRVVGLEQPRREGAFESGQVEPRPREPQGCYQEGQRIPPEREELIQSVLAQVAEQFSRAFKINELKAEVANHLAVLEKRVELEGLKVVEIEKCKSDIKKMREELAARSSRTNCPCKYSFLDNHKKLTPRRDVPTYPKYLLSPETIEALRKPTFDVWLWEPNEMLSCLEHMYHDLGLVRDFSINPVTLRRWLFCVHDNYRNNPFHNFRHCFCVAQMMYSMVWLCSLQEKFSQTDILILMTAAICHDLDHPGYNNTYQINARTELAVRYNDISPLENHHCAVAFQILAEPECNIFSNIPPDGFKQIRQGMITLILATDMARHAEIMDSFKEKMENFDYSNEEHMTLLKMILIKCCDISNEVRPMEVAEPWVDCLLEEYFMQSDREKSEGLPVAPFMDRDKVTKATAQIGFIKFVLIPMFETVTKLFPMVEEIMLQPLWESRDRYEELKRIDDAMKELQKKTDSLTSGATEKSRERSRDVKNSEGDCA

This test addresses PDE9 (Homo sapiens (Human), UniProt O76083). Nature of the test: PDE9-inhibiting activity (SPA enzyme assay). It counts as biochemical. Conditions: IC50 values; cGMP 1 μM substrate, 30° C.; read-out: PDE9 inhibition. The method, then: The PDE9-inhibiting activity was measured by the following method. That is, to a buffer solution containing tris(hydroxymethyl)aminomethane-hydrochloric acid (40 mM, pH 8.0), magnesium chloride (5 mM), and 2-mercaptoethanol (4 mM) were added cGMP (1 μM) and ^3H-cGMP (0.33 μCi/ml) to give a substrate buffer solution. A test substance solution and an enzyme solution which had been adjusted to an optimal concentration were added thereto to perform a reaction at 30° C. The enzyme reaction was stopped by the addition of Scintillation Proximity Assay (SPA) Beads (Perkin Elmer, USA) containing 5 mM 3-isobutyl-1-methylxanthine (IBMX). For the enzyme activity, the amount of 5′-GMP, which is a reaction degradation product bound to SPA beads, was measured with a TopCount microplate reader (Hewlett Packard, USA). The inhibitory rate was calculated by taking the radioactivity of the control containing no test substance as (A), taking the radioactivity of the blank containing no enzyme as (B), and taking the radioactivity of the test substance as (C), and using the following equation.
For `Cc1cc2[nH]c(=O)c3cnn(C4CCOCC4)c3c2cc1C(=O)N1CCN(Cc2cccnc2)CC1` [Example 2, 7-methyl-8-{[4-(pyridin-3-ylmethyl)piperazin-1-yl]carbonyl}-1-(tetrahydro-2H-pyran-4-yl)-1,5-dihydro-4H-pyrazolo[4,3-c]quinolin-4-one dihydrochloride], the IC50 turned out to be 12 nM. Turning to `Cc1cc2[nH]c(=O)c3cnn(C4CCOCC4)c3c2cc1C(=O)N1CCN(c2cnccn2)CC1` [Example 50], the IC50 is 7.5 nM. For the compound `CCOCCCN1CCN(C(=O)c2cc3c(cc2C)[nH]c(=O)c2cnn(C4CCC4)c23)CC1` [Example 70], the IC50 came out at 17 nM. The figure for `Cc1cc2[nH]c(=O)c3cnn(C4CCOCC4)c3c2cc1C(=O)N1CC2CN(Cc3ccccc3)CC2C1` (centres unmarked) [Example 74] is 12 nM; for `Cc1cc2[nH]c(=O)c3cnn(C4CCOCC4)c3c2cc1C(=O)N1CCC2(CCCO2)CC1` [Example 87] it is 12 nM; for `CCOCC1CCN(C(=O)c2cc3c(cc2C)[nH]c(=O)c2cnn(C4CCOCC4)c23)C1` (centres unmarked) [Example 92] it is 6.1 nM. For `Cc1cc2[nH]c(=O)c3cnn(C4CCOCC4)c3c2cc1C(=O)N1CCC(OCC(F)F)CC1` [Example 94], the IC50 was 1.7 nM. `CCOCCCCN1CCN(C(=O)c2cc3c(cc2C)[nH]c(=O)c2cnn(C4CCOCC4)c23)CC1` [Example 107]: the IC50 amounted to 15 nM. With `COc1cc2[nH]c(=O)c3cnn(C4CCCC4)c3c2cc1C(=O)NCC(C)(C)N1CCOCC1` [Example 119], the IC50 was 8.9 nM. The figure for `COCCCCN1CCN(C(=O)c2cc3c(cc2OC)[nH]c(=O)c2cnn(C4CCCC4)c23)CC1` [Example 123] is 18 nM; for `COCCCCN(C)[C@H]1CCN(C(=O)c2cc3c(cc2C)[nH]c(=O)c2cnn(C4CCOCC4)c23)C1` [Example 127] it is 5 nM. The figure for `CCc1cc2[nH]c(=O)c3cnn(C4CCOCC4)c3c2cc1C(=O)N1CCN(CCCCOC)[C@H](C)C1` [Example 129] is 1.1 nM. The figure for `Cc1cc2[nH]c(=O)c3cnn(C4CCOCC4)c3c2cc1C(=O)N1CCN(CCCC(F)(F)F)CC1` [Example 139] is 3 nM. Take `COCCCCN1C[C@@H]2C[C@H]1CN2C(=O)c1cc2c(cc1C)[nH]c(=O)c1cnn(C3CCOCC3)c12` [Example 145]: the IC50 worked out at 8.3 nM.

On to `COCCCCN1CCN(C(=O)c2cc3c(cc2C)[nH]c(=O)c2cnn(C4CCC4)c23)C[C@@H]1C` [Example 146], for which the IC50 is 5.2 nM. On to `CCOCC1CCN(C(=O)c2cc3c(cc2C)[nH]c(=O)c2cnn([C@H]4CCOC4)c23)CC1` [Example 148], for which the IC50 amounted to 5.1 nM. With `Cc1cc2[nH]c(=O)c3cnn(C4CCOCC4)c3c2cc1C(=O)N1CC(N(C)CCC(F)(F)F)C1` [Example 150] the figure was 8 nM; with `CCOCC1CCN(C(=O)c2cc3c(cc2C(F)(F)F)[nH]c(=O)c2cnn(C4CCOCC4)c23)CC1` [Example 152], 53 nM. The figure for `COCCCCN1CCN(C(=O)c2cc3c(cc2C)[nH]c(=O)c2cnn(CC4CCOCC4)c23)CC1` [Example 154] is 32 nM; for `Cc1cc2[nH]c(=O)c3cnn(C4CCC4)c3c2cc1C(=O)N1CCN(CCC(F)(F)F)CC1` [Example 161] it is 31 nM; for `CCc1cc2[nH]c(=O)c3cnn(C4CCC4)c3c2cc1C(=O)N1CCN(CCC(F)(F)F)CC1` [Example 162] it is 7 nM.

As for `COCC(F)(F)CN1CCN(C(=O)c2cc3c(cc2C)[nH]c(=O)c2cnn([C@H]4CCOC4)c23)CC1` [Example 166], the IC50 worked out at 10 nM. `CCOCCC1CCN(C(=O)c2cc3c(cc2C)[nH]c(=O)c2cnn(C4CCOCC4)c23)CC1` [Example 168]: the IC50 was 4.3 nM. Take `Cc1cc2[nH]c(=O)c3cnn(C4CCOCC4)c3c2cc1C(=O)N1CCC(OC2CCC2)CC1` [Example 169]: the IC50 stood at 2.5 nM. Regarding `Cc1cc2[nH]c(=O)c3cnn(C4CCOCC4)c3c2cc1C(=O)N1CCN(CCCOC(F)(F)F)CC1` [Example 173], the IC50 came to 6.3 nM. `Cc1cc2[nH]c(=O)c3cnn([C@H]4CCOC4)c3c2cc1C(=O)N1CCC(OC[C@H](C)F)CC1` [Example 178]: the IC50 came out at 4.4 nM. Regarding `COCCCN1CCN(C(=O)c2cc3c(cc2C)[nH]c(=O)c2cnn(C4CCC4)c23)C[C@@H]1C` [Example 179], the IC50 turned out to be 6.8 nM. `Cc1cc2[nH]c(=O)c3cnn([C@H]4CCN(C)C4)c3c2cc1C(=O)N1CCN(c2ccc(F)c(C)n2)[C@@H](C)C1` [Example 181]: the IC50 is 4.4 nM. Turning to `Cc1cc2[nH]c(=O)c3cnn([C@H]4CCN(C)C4)c3c2cc1C(=O)N1CCN(c2ccc(F)c(C)n2)[C@H](C)C1` [Example 182], the IC50 came out at 5.5 nM. Consider `COCCCCN1C[C@H](C)N(C(=O)c2cc3c(cc2C)[nH]c(=O)c2cnn(C4CCOCC4)c23)C[C@H]1C` [Example 183], for which the IC50 worked out at 3.5 nM.

For the compound `Cc1cc2[nH]c(=O)c3cnn(C4CCOCC4)c3c2cc1C(=O)N1C[C@@H](C)N(CCC(F)(F)F)C[C@@H]1C` [Example 184], the IC50 came out at 4.7 nM.

In the case of `Cc1cc2[nH]c(=O)c3cnn([C@H]4CCOC4)c3c2cc1C(=O)N1CCN(CCC(F)(F)F)CC1` [Example 185], the IC50 was found to be 19 nM. With `COCCCCN1CCN(C(=O)c2cc3c(cc2C)[nH]c(=O)c2cnn(C4CCCC4)c23)C[C@@H]1C` [Example 186] the figure was 3.8 nM. For the compound `COCCCCN1C[C@H](C)N(C(=O)c2cc3c(cc2C)[nH]c(=O)c2cnn(CC4CC4)c23)C[C@H]1C` [Example 187], the IC50 was 8.4 nM.

Take `Cc1cc2[nH]c(=O)c3cnn(CC4CC4)c3c2cc1C(=O)N1C[C@@H](C)N(CCC(F)(F)F)C[C@@H]1C` [Example 188]: the IC50 was 14 nM. With `COCCCCN1C[C@H](C)N(C(=O)c2cc3c(cc2C)[nH]c(=O)c2cnn(CC4CCC4)c23)C[C@H]1C` [Example 189] the figure was 6.9 nM; with `Cc1cc2[nH]c(=O)c3cnn(CC4CCC4)c3c2cc1C(=O)N1C[C@@H](C)N(CCC(F)(F)F)C[C@@H]1C` [Example 190], 7.5 nM; with `Cc1cc2[nH]c(=O)c3cnn([C@H]4CCOC4)c3c2cc1C(=O)N1CCC(OCC(C)(F)F)CC1` [Example 191], 9.5 nM.

As to `Cc1cc2[nH]c(=O)c3cnn(C4CCOCC4)c3c2cc1C(=O)N1CCC(C(F)(F)F)CC1` [Example 192], the IC50 came out at 11 nM. In the case of `COCCCCN1CCN(C(=O)c2cc3c(cc2C)[nH]c(=O)c2cnn(C4CCC(F)(F)CC4)c23)C[C@@H]1C` [Example 193], the IC50 is 5.7 nM. As for `COCCCCN1CCN(C(=O)c2cc3c(cc2C)[nH]c(=O)c2cnn(CC4CC4)c23)C[C@@H]1C` [Example 195], the IC50 was determined as 4.4 nM. For the compound `Cc1cc2[nH]c(=O)c3cnn([C@H]4CCOC4)c3c2cc1C(=O)N1CCC(OCC2CC2)CC1` [Example 198], the IC50 stood at 3.2 nM.

With `CCCOC1CCN(C(=O)c2cc3c(cc2C)[nH]c(=O)c2cnn([C@H]4CCOC4)c23)CC1` [Example 199], the IC50 is 4.7 nM. The figure for `Cc1cc2[nH]c(=O)c3cnn([C@H]4CCOC4)c3c2cc1C(=O)N1CCN(CCCC(F)(F)F)CC1` [Example 200] is 9 nM; for `CCOCCC1CCN(C(=O)c2cc3c(cc2C)[nH]c(=O)c2cnn([C@H]4CCOC4)c23)CC1` [Example 201] it is 6.6 nM; for `Cc1cc2[nH]c(=O)c3cnn([C@H]4CCOC4)c3c2cc1C(=O)N1CCC(OC2CCC2)CC1` [Example 202] it is 3.7 nM. For the compound `Cc1cc2[nH]c(=O)c3cnn([C@H]4CCOC4)c3c2cc1C(=O)N1CCC(OCC(F)(F)F)CC1` [Example 203], the IC50 was 2.8 nM. As for `COCCCCN1CCN(C(=O)c2cc3c(cc2C)[nH]c(=O)c2cnn(CC4CC(F)(F)C4)c23)C[C@@H]1C` [Example 204], the IC50 was 6.2 nM. With `Cc1cc2[nH]c(=O)c3cnn(C4CCOCC4)c3c2cc1C(=O)N1CCN(CCC(F)(F)F)[C@@H](C)C1` [Example 207], the IC50 is 1.7 nM. With `Cc1cc2[nH]c(=O)c3cnn(C4CCC(F)(F)CC4)c3c2cc1C(=O)N1CCN(CCC(F)(F)F)[C@@H](C)C1` [Example 208], the IC50 was determined as 1.7 nM. Regarding `Cc1cc2[nH]c(=O)c3cnn(CC4CC4)c3c2cc1C(=O)N1CCN(CCC(F)(F)F)[C@@H](C)C1` [Example 210], the IC50 is 1.3 nM. As to `Cc1cc2[nH]c(=O)c3cnn(CC4CCC4)c3c2cc1C(=O)N1CCN(CCC(F)(F)F)[C@@H](C)C1` [Example 211], the IC50 came to 1.2 nM. `Cc1cc2[nH]c(=O)c3cnn(C4CCCC4)c3c2cc1C(=O)N1CCN(CCC(F)(F)F)[C@@H](C)C1` [Example 212]: the IC50 turned out to be 2.4 nM. `Cc1ccc(OC2CCN(C(=O)c3cc4c(cc3C)[nH]c(=O)c3cnn(C5CCN(C)CC5)c34)CC2)nc1` [Example 213]: the IC50 came to 11 nM. With `CCN1CCN(C(=O)c2cc3c(cc2C)[nH]c(=O)c2cnn(C4CCN(C)CC4)c23)C[C@@H]1c1ccccc1` [Example 214] the figure was 16 nM. Regarding `Cc1cc2[nH]c(=O)c3cnn([C@H]4CCOC4)c3c2cc1C(=O)N1CCN(CCCOC(F)(F)F)CC1` [Example 219], the IC50 amounted to 15 nM.

Take `Cc1cc2[nH]c(=O)c3cnn([C@H]4CCOC4)c3c2cc1C(=O)N1CCC(OC[C@@H](C)F)CC1` [Example 220]: the IC50 is 16 nM. For `Cc1cc2[nH]c(=O)c3cnn(C4CCOCC4)c3c2cc1C(=O)N1CCC(O)(C(F)(F)F)CC1` [Example 221], the IC50 worked out at 24 nM. With `Cc1cc2[nH]c(=O)c3cnn(C4CCOCC4)c3c2cc1C(=O)N1CCC2(CC1)COc1ccccc12` [Example 283], the IC50 is 5.9 nM.
